According to US20130064899A1, “SYNERGISTIC BIOCIDE COMPOSITION CONTAINING AT LEAST THREE BIOCIDE COMPONENTS” (THOR GMBH, priority 2010, published 2013):
Marks after values point to notes of the source that are not given here.

Key:
[1] = tested on: Candida lipolytica (DSM 3286); assay: Minimum inhibitory concentration and synergy index in Sabouraud maltose broth, Candida lipolytica; assay type: cell-based; conditions: 72 hours at 25° C.; for SI (synergy index = Qa/QA + Qb/QB): below 1 = synergism
Experimental: (§1) A test was made of the synergism of a combination of BIT, zinc pyrithione or sodium pyrithione, and silver. The test organisms used were the yeasts Candida albicans (DSM 1386) and Candida lipolytica (DSM 3286). For the test, mixtures with different compositions of BIT, zinc pyrithione or sodium pyrithione, and silver were prepared and were tested for their activity on Candida albicans and Candida lipolytica.
(§2) The individual actives or actives mixtures were mixed in serial concentration series with nutrient broth (Sabouraud maltose broth) and inoculated with the respective test organisms. The cell density in the overall batch was in each case 10^6 microbes per ml.
(§3) The incubation time was 72 hours at 25° C. on a shaker at 120 rpm. This was followed by inspection for growth of Candida albicans and Candida lipolytica.
(§4) This method was used to determine the minimum inhibitory concentrations (MICS) of the combination Ag+BIT and ZnPy or NaPy, with Ag and BIT always being present in a 1:20 ratio. The MIC is the concentration at which there is no longer any hazing of the nutrient solution.
(§5) The synergism which occurred was represented numerically by calculation of the synergy index (SI). The calculation was made according to the common method of F. C. Kull et al., Applied Microbiology, vol. 9 (1961), p. 538. The SI variant was given by the following formula:
Synergy index SI=Qa/QA+Qb/QB
When this formula is applied to the BIT+pyrithione+silver biocide system tested here, the variables in the formula have the following definition: • Qa=Concentration of Ag+BIT in the Ag+BIT and ZnPy mixture • QA=Concentration of Ag+BIT as sole biocide • Qb=Concentration of ZnPy in the Ag+BIT and ZnPy mixture • QB=Concentration of ZnPy as sole biocide
If the synergy index has a value of more than 1, this means that antagonism is present. If the synergy index adopts a value of 1, this means that the two biocides have an additive effect.

[2] = tested on: Candida albicans (DSM 1386); assay: Minimum inhibitory concentration and synergy index in Sabouraud maltose broth, Candida albicans; assay type: cell-based; conditions: 72 hours at 25° C.
Experimental: as §1, §2, §3, §4, §5
Synergy index SI=Qa/QA+Qb/QB […]

[3] = concentration of ZnPy in the Ag + BIT and ZnPy mixture, *2 = QB, ZnPy as sole biocide

Compound: [Na+].[O-][n+]1ccccc1[S-] [NaPy, sodium pyrithione]
- SI (synergy index = Qa/QA + Qb/QB) ([1]; NaPy series): 1.00
- MIC Qb (NaPy) ([1]; concentration of NaPy in the Ag + BIT and NaPy mixture, *2 = QB, NaPy as sole biocide): 30*^2 ppm

Compound: zinc pyrithione [ZnPy]
- SI (synergy index = Qa/QA + Qb/QB) ([2]; below 1 = synergism): 1.00
- MIC Qb (ZnPy) [2, 3]: 7.5*^2 ppm
- SI (synergy index = Qa/QA + Qb/QB) ([1]; ZnPy series): 1.00
- MIC Qb (ZnPy) [1, 3]: 7.5*^2 ppm
